Tested on: CD44
Assay: Expression of CD44 on cultured normal human skin explants, indirect immunoperoxidase histochemistry
Assay type: cell-based
Settings: for Histochemical analysis of the CD44 receptor (semiquantitative scores), Mean ± sd n = 8: skin explants cultured 14 days
Experimental: CD44 is a transmembrane glycoprotein with a molecular weight of 80-95 kDa (CD44). The increase in the expression of this receptor at the surface of the cells of the skin improves the binding of hyaluronic acid, collagen and fibronectin. This binding makes possible in particular hydration of the dermis and epidermis.
Normal human skin fragments are obtained by plastic surgery and are deposited in culture plates. The skin explants are cultured for 14 days and compound A is added daily at 0.3 or 3 mM. At the end of culturing, the skin explants are fixed in Bouin's fluid and embedded in paraffin wax. Sections are produced and the receptor is visualized by a 3-layer indirect immunoperoxidase technique (ABC peroxidase kit, Vector Laboratories).
Histochemical analysis of the CD44 receptor (semiquantitative scores);

activity on expression of CD44 (in words) (0.3 mM): present | activity on expression of CD44 (in words) (higher concentration (3 mM)): again encountered | Histochemical analysis of the CD44 receptor (semiquantitative scores), Mean ± sd n = 8 (compound added daily at 0.3 mM): 2.30 ± 1.00 | Histochemical analysis of the CD44 receptor (semiquantitative scores), Mean ± sd n = 8 (compound added daily at 3.0 mM): 2.00 ± 1.10 | expression of CD44 (histological evaluation, in words) (skin explants treated daily for 14 days): significant increase
SMILES: CC(O)C[C@@H]1OC[C@@H](O)[C@H](O)[C@H]1O (stereo partly drawn) [compound A, C-β-D-xylopyranoside-2-hydroxypropane]

— patent US20100190742A1, “COSMETIC/PHARMACEUTICAL COMPOSITIONS COMPRISING HYALURONIC ACID AND ADMINISTRATION THEREOF FOR REDUCING SIGNS OF AGING” (L'OREAL, priority 2007, published 2010)
